Measured values taken from patent publication US20240270821A1, “GIP/GLP1/GCG TRI-RECEPTOR AGONISTS AND USES THEREOF” (priority 2023, published 2024).
Read-outs that look alike come from different tables or passages of the source. Starred links: 1 amine or outer side, 2 acyl side, 3 side chain; linkers in the order of their positions; H or OH if unused. Non-standard residues stand in square brackets, D forms with d. Residues, ends and D or L forms follow the SMILES beside them. Groups on a side chain read outwards from the residue. *: point of attachment. C18 diacid = O=C(O)CCCCCCCCCCCCCCCCC(=O)*; αMePhe(2-F) = C[C@](N)(Cc1ccccc1F)C(=O)O; γGlu = O=C(O)[C@H](CCC(=O)[*:2])N[*:1]; αMe4Pal = C[C@](N)(Cc1ccncc1)C(=O)O; αMeY = C[C@](N)(Cc1ccc(O)cc1)C(=O)O; 4Pal = N[C@@H](Cc1ccncc1)C(=O)O; αMeL = CC(C)C[C@](C)(N)C(=O)O; αMeS = C[C@](N)(CO)C(=O)O; Orn = NCCC[C@H](N)C(=O)O; AEEA = NCCOCCOCC(=O)O; Aib = CC(C)(N)C(=O)O

Tests used:
hGIPR [1] = molecular target: T1, hGIPR (Homo sapiens, UniProt P48546); experiment: Functional cAMP activity in the presence of 1% HSA; type: cell-based; conditions: read-out: cAMP Rel EC50, hGIPR
T1 sequence (P48546 22-466): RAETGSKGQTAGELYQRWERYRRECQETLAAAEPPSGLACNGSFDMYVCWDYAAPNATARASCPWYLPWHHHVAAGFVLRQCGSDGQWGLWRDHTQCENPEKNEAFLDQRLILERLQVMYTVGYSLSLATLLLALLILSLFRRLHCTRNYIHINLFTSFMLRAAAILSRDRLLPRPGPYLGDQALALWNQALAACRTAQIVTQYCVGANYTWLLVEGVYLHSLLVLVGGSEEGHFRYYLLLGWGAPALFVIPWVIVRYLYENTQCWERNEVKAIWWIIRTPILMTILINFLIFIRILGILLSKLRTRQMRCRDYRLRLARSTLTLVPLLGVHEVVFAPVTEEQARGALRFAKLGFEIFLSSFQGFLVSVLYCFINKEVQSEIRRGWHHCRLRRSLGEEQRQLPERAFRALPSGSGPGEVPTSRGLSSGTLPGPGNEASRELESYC

hGLP-1R [2] = molecular target: T2, hGLP-1R (Homo sapiens, UniProt P43220); experiment: Functional cAMP activity in the presence of 1% HSA; type: cell-based; conditions: read-out: cAMP Rel EC50, hGLP-1R
T2 sequence (P43220 24-463): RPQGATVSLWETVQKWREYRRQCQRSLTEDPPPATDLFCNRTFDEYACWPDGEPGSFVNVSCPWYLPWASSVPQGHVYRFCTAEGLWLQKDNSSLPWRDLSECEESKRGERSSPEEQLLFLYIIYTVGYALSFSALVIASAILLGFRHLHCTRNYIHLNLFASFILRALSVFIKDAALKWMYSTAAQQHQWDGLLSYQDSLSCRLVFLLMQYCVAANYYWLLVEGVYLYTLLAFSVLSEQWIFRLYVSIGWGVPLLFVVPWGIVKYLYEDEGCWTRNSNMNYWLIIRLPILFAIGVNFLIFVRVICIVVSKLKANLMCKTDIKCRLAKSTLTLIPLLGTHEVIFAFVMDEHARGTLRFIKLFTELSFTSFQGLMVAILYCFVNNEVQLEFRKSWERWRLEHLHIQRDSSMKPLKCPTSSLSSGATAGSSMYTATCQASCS

human GcgR = human GcgR (Homo sapiens, UniProt P47871); experiment: Functional cAMP activity in the presence of 1% HSA; type: cell-based; conditions: read-out: cAMP Rel EC50, hGcgR
human GcgR, sequence (P47871 26-477): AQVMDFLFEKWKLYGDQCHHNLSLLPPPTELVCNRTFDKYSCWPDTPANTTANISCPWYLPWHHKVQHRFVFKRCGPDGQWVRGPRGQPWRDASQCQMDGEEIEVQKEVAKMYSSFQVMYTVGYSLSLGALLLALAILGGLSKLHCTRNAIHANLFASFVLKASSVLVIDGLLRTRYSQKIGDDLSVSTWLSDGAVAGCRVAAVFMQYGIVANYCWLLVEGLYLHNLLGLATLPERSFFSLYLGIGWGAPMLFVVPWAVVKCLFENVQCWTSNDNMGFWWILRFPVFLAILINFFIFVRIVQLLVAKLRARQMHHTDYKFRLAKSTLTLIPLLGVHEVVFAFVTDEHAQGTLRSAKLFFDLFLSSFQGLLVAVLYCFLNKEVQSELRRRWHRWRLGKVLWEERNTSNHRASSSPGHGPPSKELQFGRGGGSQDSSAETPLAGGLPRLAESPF

hGIPR [3] = molecular target: T1, hGIPR; experiment: Functional cAMP activation in the presence of 0.1% casein (no HSA); type: cell-based; conditions: read-out: Relative cAMP EC50, hGIPR;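 as to Relative cAMP EC50, hGIPR: intracellular cAMP rise after 30 min at 37 °C read by HTRF against a standard curve, scaled between buffer alone (0%) and top control ligand concentration (100%), four-parameter fit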;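 as to Relative cAMP EC50, hGLP-1R: intracellular cAMP rise after 30 min at 37 °C read by HTRF, normalized between buffer only (0%) and maximal control ligand (100%), four-parameter variable-slope fit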;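 as to Relative cAMP EC50, hGcgR: intracellular cAMP rise after 30 min at 37 °C, read by HTRF against a cAMP standard curve, scaled from buffer only (0%) to maximal control ligand response (100%)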
hGLP-1R [4] = molecular target: T2, hGLP-1R; experiment: as above; type: cell-based; conditions: read-out: Relative cAMP EC50, hGLP-1R
hGcgR = hGcgR (Homo sapiens, UniProt P47871); experiment: as above; type: cell-based; conditions: read-out: Relative cAMP EC50, hGcgR;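 also: intracellular cAMP rise after 30 min at 37 °C, read by HTRF against a cAMP standard curve, scaled from buffer only (0%) to maximal control ligand response (100%)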
hGcgR, sequence (P47871 26-477): as above

in vivo [5] = experiment: in vivo; set-up: species or system Sprague Dawley rats; conditions: male, Sprague Dawley, rat, 4 mg/kg
Description: The pharmacokinetics of the exemplary analogs are evaluated following a single subcutaneous (SC) administration of 10 nmol/kg (dissolved in 40 mM Tris pH8) or single 4 mg/kg (mixed with 250 mM sodium decanoate/C10 in 40 mM Tris pH8) intrajejunal (IJ) administration to male Sprague Dawley rats. Blood samples are collected over 96 hours following SC administration and 72 hours following IJ dosing, and resulting individual plasma concentrations are used to calculate pharmacokinetic parameters. Peptide plasma (K3 EDTA) concentrations are determined using a qualified LC/MS method that measured the intact mass of the analog. Each peptide and an analog as an internal standard are extracted from rat plasma using methanol. A High Resolution Instrument was used for LC/MS detection.

in vivo [6] = experiment: in vivo; set-up: species or system cynomolgus monkeys; conditions: both sexes, cynomolgus monkey, iv, 10 nmol/kg
Description: (§1) A study is designed to evaluate the oral bioavailability of Example polypeptides in cynomolgus monkeys. […] Standards and controls are prepared in cynomolgus monkey plasma, and any dilutions required to bring samples into the quantitative range are also performed in control cynomolgus monkey plasma. To control assay variability, an internal standard (IS) is added to all the standards and samples. The Examples and IS are extracted from 100% monkey plasma (50 μL) by protein precipitation using isopropyl alcohol and methanol (50:50 v/v). The samples are then centrifuged (3000 rpm for 10 minutes) and the supernatant is transferred to a Siricco Protein Precipitation Plate. The samples are loaded on a Sep-Pak tC18 SPE microelution plate that is conditioned with 2% formic acid in acetonitrile and water. The compounds are then washed with 2% formic acid in water and eluted using 2% formic acid in acetonitrile into a plate containing 5× Invitrosol and 1% formic acid in water prior to injecting an aliquot (10 μL) on to Xselect CSH C18, 3.5 μm, 2.1×20 mm for LC/MS analysis.
Blood samples are collected over 504 hours. Plasma is harvested from blood samples by centrifugation and stored frozen (−70° C.) until analysis. Plasma concentrations of the molecules are detected using the bioanalytical method described above.

in vivo [7] = experiment: in vivo; set-up: species or system cynomolgus monkeys; conditions: both sexes, cynomolgus monkey, po; for bioavailability: 10 mg; for AUC(0-inf) / CL/F / Cmax / Tmax / half-life: 300 mg
Description: as §1
[…] Blood samples are collected up to 504 hours post-dose. Plasma is harvested from blood samples by centrifugation and stored frozen (−70° C.) until analysis. Plasma concentrations of the molecules are detected using the bioanalytical method described above.

[8] = Body weight in diet-induced obese C57BL/6 mice; type: in vivo; conditions: 10 nmol/kg SC QD, percent of starting weight, DIO mice, mean ± SEM n=5
Outline: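 Daily weighing gave body weight as percent of starting value (mean±SEM, n=5) over 9-16 days of SC dosing, once daily or every 3 days, shortly before lights-off. Animals were weight-randomized male C57BL/6 DIO mice, 41-50 g, fed ad libitum on a calorie-rich diet.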

human GLP1-R = human GLP1-R (Homo sapiens, UniProt P43220); experiment: GLP1-R internalization assay in HEK293 cells; type: cell-based; conditions: for EC50: HEK293 cells expressing SNAP-GLP-1R, read-out: GLP1R Internalization EC50; for Internalization % TOP: normalized to maximum concentration of GLP-1 (100%)
human GLP1-R, sequence (P43220 24-463): as the sequence (P43220 24-463) above

[9] = system: Intestinal organoid from Göttingen minipig jejunum tissue, 2D monolayer; experiment: Cell based in vitro permeability (Papp) assay; type: in vitro ADME
Outline: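 Papp calculated from LC/MS peptide levels in apical and basal compartments. Basal sampling at 20 min with C10 present, across monolayers grown from dissociated minipig jejunal organoids in transwells.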

[10] = Pepsin stability assay in simulated gastric fluid; type: in vitro ADME; conditions: pH 1.2, % Intact (SD)
Description: A pepsin stability assay is utilized to determine the relative stability of Example polypeptides in a simulated gastric proteolytic environment. […] The relative amount of intact peptide is quantified by mass spectrometry (MS). […] The examples were dissolved in 50 mM Tris buffer pH 8.0 at a concentration of 10 mg/mL as a stock solution. Pepsin A was reconstituted in SGF at 10 mg/mL. […] The example peptide and pepsin solutions were then incubated at 37° C. in a shaking incubator set at 100 rpm. Samples (25 μL) were withdrawn at different time intervals and quenched with 100 mM ammonium bicarbonate pH 9 (50 μL) to stop proteolytic activity. All samples were centrifuged, and the supernatants were analyzed by LC/MS to determine the remaining intact peptide.

[11] = in the presence of 0.1% casein (no HSA), geometric mean

Row | Molecule | EC50 (hGIPR [1]) [nM] | EC50 (hGLP-1R [2]) [nM] | EC50 (human GcgR) [nM] | EC50 (hGIPR [3]) [nM] | EC50 (hGLP-1R [4]) [nM] | EC50 (hGcgR) [nM] | AUC(0-inf) (in vivo [6]) [µM·h] | clearance (in vivo [6]) [mL/min/kg] | half-life (in vivo [6]) [h] | bioavailability (in vivo [7]) [%] | AUC(0-inf) (in vivo [7]) [µM·h] | CL/F (in vivo [7]) [mL/min/kg] | Cmax (in vivo [7]) [nM] | Tmax (in vivo [7]) [h] | half-life (in vivo [7]) [h] | Body weight (%) ([8]; 7 days) | Body weight (%) ([8]; 14 days) | EC50 (human GLP1-R) [nM] | Internalization % TOP (human GLP1-R) [%] | remaining at 0.25 h, 0.4 mg/mL [10] [%] | other results
1 | CC[C@H](C)[C@H](NC(=O)[C@H](Cc1ccccc1)NC(=O)[C@H](C)NC(=O)C(C)(C)NC(=O)[C@H](CCC(N)=O)NC(=O)[C@H](C)NC(=O)[C@H](CCCCNC(=O)COCCOCCNC(=O)CC[C@H](NC(=O)CCCCCCCCCCCCCCCCC(=O)O)C(=O)O)NC(=O)[C@H](CCCN)NC(=O)[C@H](CC(=O)O)NC(=O)[C@H](CC(C)C)NC(=O)[C@](C)(CC(C)C)NC(=O)[C@@H](NC(=O)[C@](C)(CO)NC(=O)[C@H](Cc1ccc(O)cc1)NC(=O)[C@H](CC(=O)O)NC(=O)[C@H](CO)NC(=O)[C@@H](NC(=O)[C@](C)(Cc1ccccc1F)NC(=O)[C@@H](NC(=O)CNC(=O)[C@H](CCC(N)=O)NC(=O)C(C)(C)NC(=O)[C@@H](N)Cc1c[nH]cn1)[C@@H](C)O)[C@@H](C)O)[C@@H](C)CC)C(=O)N[C@H](CCC(=O)O)C(=O)N[C@@H](Cc1ccc(O)cc1)C(=O)N[C@@H](CC(C)C)C(=O)N[C@@H](CC(C)C)C(=O)N[C@@H](CCC(=O)O)C(=O)NCC(=O)NCC(=O)N1CCC[C@H]1C(=O)N[C@@H](CO)C(=O)N[C@@H](CO)C(=O)NCC(=O)N[C@@H](CCC(=O)O)C(=O)N1CCC[C@H]1C(=O)N1CCC[C@H]1C(=O)N1CCC[C@H]1C(=O)N[C@@H](CCC(=O)O)C(N)=O [Example 381] (H-H[Aib]QGT[αMePhe(2-F)]TSDY[αMeS]I[αMeL]LD[Orn]K([AEEA-γGlu-C18 diacid])AQ[Aib]AFI[dE]YLLEGGPSSGEPPPE-NH2) | 7.01 | 24.5 | 176 |  |  |  |  |  |  |  |  |  |  |  |  |  |  |  |  |  | EC50 (hGIPR [3]; [11]): 0.0156 nM; EC50 (hGLP-1R [4]; [11]): 0.157 nM; EC50 (hGcgR; [11]): 1.39 nM; CL/F (in vivo [5]): 9.83 mL/min/kg; half-life (in vivo [5]): 8.3 h
2 | CC[C@H](C)[C@H](NC(=O)[C@H](CC(C)C)NC(=O)[C@](C)(Cc1ccc(O)cc1)NC(=O)[C@@H](CCC(=O)O)NC(=O)[C@@H](NC(=O)[C@H](Cc1ccccc1)NC(=O)[C@H](CCC(=O)O)NC(=O)[C@](C)(Cc1ccncc1)NC(=O)[C@H](CCC(N)=O)NC(=O)[C@H](C)NC(=O)[C@H](CCCCNC(=O)COCCOCCNC(=O)CC[C@H](NC(=O)CCCCCCCCCCCCCCCCC(=O)O)C(=O)O)NC(=O)[C@H](CCCN)NC(=O)[C@H](CC(=O)O)NC(=O)[C@H](CC(C)C)NC(=O)[C@](C)(CC(C)C)NC(=O)[C@@H](NC(=O)[C@](C)(CO)NC(=O)[C@H](Cc1ccncc1)NC(=O)[C@H](CC(=O)O)NC(=O)[C@H](CO)NC(=O)[C@@H](NC(=O)[C@](C)(Cc1ccccc1F)NC(=O)[C@@H](NC(=O)CNC(=O)[C@H](CCC(N)=O)NC(=O)C(C)(C)NC(=O)[C@@H](N)Cc1ccc(O)cc1)[C@@H](C)O)[C@@H](C)O)[C@@H](C)CC)[C@@H](C)CC)C(=O)N[C@@H](CCC(=O)O)C(=O)NCC(=O)NCC(=O)N1CCC[C@H]1C(=O)N[C@@H](CO)C(=O)N[C@@H](CO)C(=O)NCC(=O)N[C@@H](C)C(=O)N1CCC[C@H]1C(=O)N1CCC[C@H]1C(=O)N1CCC[C@H]1C(=O)N[C@@H](CO)C(=O)NCC(=O)N[C@@H](CO)C(N)=O [Example 699] | 0.566 | 25.3 | 144 | 0.00663 | 0.196 | 1.35 | 9.23 ± 1.64 | 0.0185 | 50.8 ± 13.7 | 1.3 | 7.15 | 1.51 | 187 | 2.75 | 34.3 | 68.34 ± 0.85 | 56.85 ± 2.42 | 14.9 | 102 | 97.9 | Relative Papp (Compared to internal standard) [9]: 0.51
3 | H-Y[Aib]QGT[αMePhe(2-F)]TSD[4Pal][αMeS]I[αMeL]LD[Orn]K([AEEA-γGlu-C18 diacid])AQ[αMe4Pal]EFI[dE][αMeY]LIEGGPSSGAPPPSGGGE-NH2 [Example 741] | 0.817 | 32.4 | 200 | 0.00612 | 0.239 | 2.01 | 9.55 ± 2.28 | 0.0182 | 32.1 ± 4.22 | 0.8 | 4.2 | 2.28 | 95.8 | 3.75 | 58.1 |  | 59.42 ± 2.94 | 50.1 |  | 111 | remaining at 0.5 h, 0.4 mg/mL [10]: 104%; remaining at 1 h, 0.4 mg/mL [10]: 105%
4 | H-Y[Aib]QGT[αMePhe(2-F)]TSD[4Pal][αMeS]I[αMeL]LD[Orn]K([AEEA-γGlu-C18 diacid])AQ[αMe4Pal]EFI[dE][αMeY]LIEGGPSSGAPPPSGSE-NH2 [Example 712] | 0.584 | 30.8 | 171 | 0.00689 | 0.258 | 1.36 | 12.4 ± 0.862 | 0.0135 | 54 ± 6.09 | 0.9 | 6.18 | 1.85 | 124 | 3.75 | 51.8 | 69.4 ± 0.60 | 63.61 ± 3.73 | 35.3 | 109 | 92.4 | Relative Papp (Compared to internal standard) [9]: 0.60; remaining at 0.5 h, 0.4 mg/mL [10]: 91.4%; remaining at 1 h, 0.4 mg/mL [10]: 93.5%
5 | H-Y[Aib]QGT[αMePhe(2-F)]TSD[4Pal][αMeS]I[αMeL]LD[Orn]K([AEEA-γGlu-C18 diacid])AQ[αMe4Pal]EFI[dE][αMeY]LVEGGPSSGAPPPSGS-NH2 [Example 694] | 0.787 | 25 | 206 | 0.00781 | 0.253 | 2.04 | 10.7 ± 2.75 | 0.0163 | 50.7 ± 16.8 | 2.4 | 14.8 | 0.873 | 353 | 3.5 | 50.7 | 71.92 ± 1.28 | 69.77 ± 2.96 | 21.8 | 97.3 | 101 | Relative Papp (Compared to internal standard) [9]: 0.60
